Experimental findings from patent publication US11524966B1 (Valo Early Discovery, Inc., priority 2017, dated 2022) are described below.

The target in this experiment is T1, USP28 (His-tagged USP28-FL-mammalian) (Homo sapiens, UniProt Q96RU2).
T1 construct: Expression of USP28 (1-1077)-TEV-6*His (pTT5 vector); made in house; host or cells: Expi293f cells (pTT5 vector)
T1 sequence (Q96RU2 1-1077): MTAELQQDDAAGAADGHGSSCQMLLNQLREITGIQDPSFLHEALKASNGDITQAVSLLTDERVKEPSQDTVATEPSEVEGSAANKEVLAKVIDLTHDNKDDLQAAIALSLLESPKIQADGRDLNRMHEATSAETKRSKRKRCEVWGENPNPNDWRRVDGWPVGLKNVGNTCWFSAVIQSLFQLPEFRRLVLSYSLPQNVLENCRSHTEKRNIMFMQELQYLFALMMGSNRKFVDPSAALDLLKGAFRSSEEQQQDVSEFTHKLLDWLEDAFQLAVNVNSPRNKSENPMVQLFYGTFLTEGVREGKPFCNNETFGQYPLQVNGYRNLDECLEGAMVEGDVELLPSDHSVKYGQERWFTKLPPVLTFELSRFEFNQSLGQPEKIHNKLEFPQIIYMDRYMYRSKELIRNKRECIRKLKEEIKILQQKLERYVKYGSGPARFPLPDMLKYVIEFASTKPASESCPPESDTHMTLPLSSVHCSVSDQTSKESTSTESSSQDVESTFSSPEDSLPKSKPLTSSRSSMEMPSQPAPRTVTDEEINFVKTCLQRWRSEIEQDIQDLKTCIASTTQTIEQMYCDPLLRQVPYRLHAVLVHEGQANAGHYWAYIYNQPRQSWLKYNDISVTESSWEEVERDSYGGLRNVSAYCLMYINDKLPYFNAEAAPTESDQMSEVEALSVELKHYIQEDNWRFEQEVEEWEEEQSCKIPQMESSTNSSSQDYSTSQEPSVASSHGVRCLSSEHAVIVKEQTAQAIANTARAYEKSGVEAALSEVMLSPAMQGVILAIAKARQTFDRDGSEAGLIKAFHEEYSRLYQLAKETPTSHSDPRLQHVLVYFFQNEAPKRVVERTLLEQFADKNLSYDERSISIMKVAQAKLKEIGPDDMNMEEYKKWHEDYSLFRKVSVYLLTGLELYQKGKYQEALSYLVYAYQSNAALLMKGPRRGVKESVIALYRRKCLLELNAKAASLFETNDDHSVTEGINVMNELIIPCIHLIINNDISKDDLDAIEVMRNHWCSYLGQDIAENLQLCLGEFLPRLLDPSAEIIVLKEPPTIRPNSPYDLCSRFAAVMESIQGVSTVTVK
Description: Ubiquitin-Rhodamine 110 Assay for USP28 Activity, Example A-1(a). The experiment is classed as biochemical. The settings on record: Ubiquitin-Rhodamine 110 assay, Example A-1(a); read-out: USP28 A-1(a) IC50 range. In a few lines: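 Full-length His-tagged USP28 (1-1077, Expi293F-expressed; […]) was preincubated 30 min with compound (25 μM–1.3 nM, 10-point 3-fold) in 20 mM Tris-HCl pH 8.0, 3 mM BME, 0.03% BGG, 0.01% Triton X-100. Ub-Rh110 (25 nM) was then added for 45 min at room temperature, stopped with citric acid, and read by fluorescence (485/535 nm).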
The term IC50 denotes the concentration at which inhibition is half-maximal. Consider `Cc1ccc2c(N)c(C(=O)N[C@H]3COc4cc(N5CCC(F)(F)CC5)ccc4C3)sc2n1` [Example 5-1, (R)-3-amino-N-(7-(4,4-difluoropiperidin-1-yl)chroman-3-yl)-6-methylthieno[2,3-b]pyridine-2-carboxamide], for which the concentration for half-maximal inhibition (IC50) was in the range of 1 to 50 nM.

Turning to `O=C(N[C@H]1COc2cc(N3CCNCC3)ccc2C1)c1cnn2ccccc12` [Example 460, (R)-N-(7-(piperazin-1-yl)chroman-3-yl)pyrazolo[1,5-a]pyridine-3-carboxamide], the IC50 is greater than 2000 nM. Then `Cc1ccc2c(N)c(C(=O)N[C@H]3COc4cc(N5C[C@@H](N)[C@H](OC(F)(F)F)C5)ccc4C3)sc2n1` (single isomer, unassigned) [Example 3-9], with 50 to 200 nM; and `Cc1ccc2c(N)c(C(=O)N[C@H]3COc4cc(N5CCC(C(=O)O)CC5)ccc4C3)sc2n1` [Example 6-1, (R)-1-(3-(3-Amino-6-methylthieno[2,3-b]pyridine-2-carboxamido)chroman-7-yl)piperidine-4-carboxylic Acid], with 200 to 2000 nM; and `Cc1ccc2c(N)c(C(=O)N[C@H]3COc4cc(N5C[C@@H](N)CC56COC6)ccc4C3)sc2n1` (single isomer, unassigned) [Example 352], with 1 to 50 nM. Take `Cc1cnc2c(N)c(C(=O)N[C@H]3CCc4cc(N5CCCNCC5)ccc4C3)sc2n1` [Example 455, (S)-N-(6-(1,4-diazepan-1-yl)-1,2,3,4-tetrahydronaphthalen-2-yl)-7-amino-3-methylthieno[2,3-b]pyrazine-6-carboxamide]: the concentration for half-maximal inhibition (IC50) fell in the range of 50 to 200 nM. Then `O=C(N[C@H]1COc2cc(N3CCNCC3)ccc2C1)c1ccc(NCc2cccc(C(F)(F)F)c2)nc1` [Example 469, (R)-N-(7-(piperazin-1-yl)chroman-3-yl)-6-((3-(trifluoromethyl)benzyl)amino)nicotinamide], with 50 to 200 nM; and `Cc1cc(C)c2c(N)c(C(=O)N[C@H]3CCc4nc(N5CC6CCC(C5)N6)ccc4C3)sc2n1` [Example 354, 3-amino-N-[(6S)-2-{3,8-diazabicyclo[3.2.1]octan-3-yl}-5,6,7,8-tetrahydroquinolin-6-yl]-4,6-dimethylthieno[2,3-b]pyridine-2-carboxamide], with 1 to 50 nM.

Regarding `O=C(N[C@@H]1CCc2c(c(F)cc(N3CC4CCC(C3)N4)c2C(F)F)C1)c1cnc2c(c1)[C@H]1C[C@H]1CN2` (single isomer, unassigned) [Example 362], the 50% inhibitory concentration (IC50) was in the range of 200 to 2000 nM.

On to `Cc1ccc2c(N)c(C(=O)N[C@H]3COc4c(cc(F)c(N5CCNCC5)c4F)C3)sc2n1` (single isomer, unassigned) [Example 3-17], for which the IC50 lay in the range of 1 to 50 nM. Then `COC[C@@H]1CN(c2ccc3c(n2)OC[C@H](NC(=O)c2sc4nc(C)cc(C)c4c2N)C3)C[C@@H]1N` [Example 348, 3-amino-N-[(3R)-7-[(3R,4R)-3-amino-4-(methoxymethyl)pyrrolidin-1-yl]-2H,3H,4H-pyrano[2,3-b]pyridin-3-yl]-4,6-dimethylthieno[2,3-b]pyridine-2-carboxamide], with 50 to 200 nM.

For the compound `CC(=O)N1CCCc2cc(C(=O)N[C@H]3COc4cc(N5CCNCC5)ccc4C3)ccc21` [Example 459, (R)-1-acetyl-N-(7-(piperazin-1-yl)chroman-3-yl)-1,2,3,4-tetrahydroquinoline-6-carboxamide], the IC50 was greater than 2000 nM.

On to `Cc1ccc2c(N)c(C(=O)N[C@H]3CCc4cc(N5CCNCC5)c(F)c(F)c4C3)sc2n1` [Example 417, 3-amino-N-[(2S)-7,8-difluoro-6-(piperazin-1-yl)-1,2,3,4-tetrahydronaphthalen-2-yl]-6-methylthieno[2,3-b]pyridine-2-carboxamide], for which the IC50 was in the range of 200 to 2000 nM. Then `Cc1cnc2c(N)c(C(=O)N[C@H]3CCc4cc(N5CC6COCC(C5)N6)ccc4C3)sc2n1` [Example 456, N-((2S)-6-(3-oxa-7,9-diazabicyclo[3.3.1]nonan-7-yl)-1,2,3,4-tetrahydronaphthalen-2-yl)-7-amino-3-methylthieno[2,3-b]pyrazine-6-carboxamide], with 50 to 200 nM; and `O=C(N[C@H]1CCc2c(c(F)cc(N3CC4CCC(C3)N4)c2C(F)F)C1)c1cnc2c(c1)[C@@H]1C[C@@H]1CN2` (single isomer, unassigned) [Example 359], with greater than 2000 nM; and `Cc1ccc2c(N)c(C(=O)N[C@@H]3CCc4cc(N5CCNCC5)c(F)c(F)c4C3)sc2n1` [Example 418, 3-amino-N-[(2R)-7,8-difluoro-6-(piperazin-1-yl)-1,2,3,4-tetrahydronaphthalen-2-yl]-6-methylthieno[2,3-b]pyridine-2-carboxamide], with 50 to 200 nM. Then `Cc1ccc2c(N)c(C(=O)N[C@H]3CCc4nc(N5C[C@@H](N)[C@H](C(F)(F)F)C5)ccc4C3)sc2n1` [Example 364, 3-amino-N-[(6S)-2-[(3S,4R)-3-amino-4-(trifluoromethyl)pyrrolidin-1-yl]-5,6,7,8-tetrahydroquinolin-6-yl]-6-methylthieno[2,3-b]pyridine-2-carboxamide], with 50 to 200 nM; and `Cc1cnc2c(N)c(C(=O)N[C@H]3CCc4cc(N5CC6CNCC(C5)O6)ccc4C3)sc2n1` [Example 448, N-((2S)-6-(9-oxa-3,7-diazabicyclo[3.3.1]nonan-3-yl)-1,2,3,4-tetrahydronaphthalen-2-yl)-7-amino-3-methylthieno[2,3-b]pyrazine-6-carboxamide], with 1 to 50 nM. Then `O=C(N[C@@H]1CCc2c(c(F)cc(N3CC4CCC(C3)N4)c2C(F)F)C1)c1cnc2c(c1)[C@@H]1C[C@@H]1CN2` (single isomer, unassigned) [Example 361], with greater than 2000 nM.

Turning to `Cc1cnc2c(N)c(C(=O)N[C@H]3CCc4nc(N5C[C@H](N)C6(COC6)C5)ccc4C3)sc2n1` [Example 365, 7-amino-N-[(6S)-2-[(8R)-8-amino-2-oxa-6-azaspiro[3.4]octan-6-yl]-5,6,7,8-tetrahydroquinolin-6-yl]-3-methylthieno[2,3-b]pyrazine-6-carboxamide], the IC50 is 1 to 50 nM. Turning to `Cc1ccc2c(N)c(C(=O)N[C@H]3CCc4nc(N5C[C@H](N)[C@]6(CCCO6)C5)ccc4C3)sc2n1` [Example 390, 3-amino-N-[(6S)-2-[(5S,9S)-9-amino-1-oxa-7-azaspiro[4.4]nonan-7-yl]-5,6,7,8-tetrahydroquinolin-6-yl]-6-methylthieno[2,3-b]pyridine-2-carboxamide], the half-maximal inhibitory concentration (IC50) lay in the range of 200 to 2000 nM. Then `O=C(N[C@H]1CCc2c(c(F)cc(N3CC4CCC(C3)N4)c2C(F)F)C1)c1cnc2c(c1)[C@H]1C[C@H]1CN2` (single isomer, unassigned) [Example 360], with 1 to 50 nM; and `O=C(N[C@H]1COc2cc(N3CCNCC3)ccc2C1)c1cnn2c(CO)cccc12` [Example 475, 7-(hydroxymethyl)-N-[(3R)-7-(piperazin-1-yl)-3,4-dihydro-2H-1-benzopyran-3-yl]pyrazolo[1,5-a]pyridine-3-carboxamide], with 200 to 2000 nM; and `Cc1ccc2c(N)c(C(=O)N[C@H]3COc4cc(N5CC[C@]6(CCCNC6)C5)ccc4C3)sc2n1` [Example 3-13, N-((R)-7-((S)-2,7-diazaspiro[4.5]decan-2-yl)chroman-3-yl)-3-amino-6-methylthieno[2,3-b]pyridine-2-carboxamide], with 1 to 50 nM.
